Data as given in US20250100994A1, “CDK12/13 COVALENT INHIBITORS OR PHARMACEUTICAL COMPOSITION THEREOF, AND USES THEREOF” (The Regents of the University of Michigan, priority 2023, published 2025).
Like-named read-outs stand apart in the source and are kept apart here. Blank lines part the entries; values can stand above or below the compound they belong to.

Legend:
CDK13 = CDK13 (Homo sapiens (Human), UniProt Q14004); test: LANCE Ultra kinase assay, CDK13; format: biochemical
Description: (§1) The inhibitory activities of the test compound on the kinases were evaluated by LANCE Ultra assay, which was used for detecting ATP-dependent phosphorylation of a ULight-4E-BP1 (Thr37/Thr46) substrate peptide (150 nM). In short, enzymatic reactions were performed in a reaction buffer (25 mM HEPES (pH 7.5), 10 mM MgCl2, 0.01% BSA, 0.01% Tween 20, and 1 mM DTT). The assay was performed in a 384-well plate (6 μL). A final concentration of an ATP substrate was […], and a final concentration of the ULight-4E-BP1 (Thr37/Thr46) substrate peptide was 150 nM. A final concentration of CDK9, CDK12, or CDK13 was 0.3, 30, or 30 nM, respectively. Pre-incubation of the compound and the enzyme was performed at room temperature for 60 min. The reaction was stopped by adding 10 mM EDTA and 0.15 nM Eu-labeled anti-phospho-eIF4E-binding protein 1 (Thr37/46) antibody in LANCE detection buffer after incubation at room temperature for 15, 60, or 90 min. Time-resolved fluorescence (excitation, 320 nm; emission donor, 615 nm; emission acceptor, 665 nm) was monitored using an EnVision spectrophotometer (PerkinElmer). Readings were computed as (acceptor count/donor count)×1000. IC50 values were derived by fitting a sigmoidal dose-response curve to a plot of assay readouts of inhibitor concentrations. All fittings were computed using program Prism 5.03 (GraphPad Software, San Diego, CA).

VCaP cell = VCaP cell proliferation, CellTiter-Glo Luminescent Cell Viability Assay; format: cell-based; settings: VCaP cells
Description: The VCaP cell proliferation activity was determined by CellTiter-Glo Luminescent Cell Viability Assay (Promega, Madison, WI). The cells were inoculated on a 96-well plate in their respective culture mediums, and incubated in an incubator with 5% CO2 at 37° C. After incubation overnight, serial dilutions of the compound were prepared, and added into the 96-well plate. A CellTiter-Glo reagent (volume equal to the volume of the cell culture medium present in each well) was added (e.g., 100 μL of the reagent was added into 100 μL of the cell culture medium in the 96-well plate). The contents were mixed on an orbital shaker for 2 min to induce the cell lysis. The cells in the 96-well plate were incubated at room temperature for 10 min, to stabilize the luminescent signal. Luminescence was recorded: the luminescent signal for each well was acquired using an Infinite M1000 Pro plate reader (Tecan, Zurich, Switzerland), and the data was analyzed using GraphPad Prism software (GraphPad Software Inc, La Jolla, CA).

CDK12 = CDK12 (Homo sapiens (Human), UniProt Q9NYV4); test: LANCE Ultra kinase assay, CDK12; format: biochemical
Description: as §1

CDK9 = CDK9 (Homo sapiens (Human), UniProt P50750); test: LANCE Ultra kinase assay, CDK9; format: biochemical
Description: as §1

[1] = 30 nM enzyme, 60 min pre-incubation, ULight-4E-BP1 150 nM, read-out: CDK13 IC50
[2] = 30 nM enzyme, 60 min pre-incubation, ULight-4E-BP1 150 nM, read-out: CDK12 IC50

Chain of CDK12 (Q9NYV4 whole entry): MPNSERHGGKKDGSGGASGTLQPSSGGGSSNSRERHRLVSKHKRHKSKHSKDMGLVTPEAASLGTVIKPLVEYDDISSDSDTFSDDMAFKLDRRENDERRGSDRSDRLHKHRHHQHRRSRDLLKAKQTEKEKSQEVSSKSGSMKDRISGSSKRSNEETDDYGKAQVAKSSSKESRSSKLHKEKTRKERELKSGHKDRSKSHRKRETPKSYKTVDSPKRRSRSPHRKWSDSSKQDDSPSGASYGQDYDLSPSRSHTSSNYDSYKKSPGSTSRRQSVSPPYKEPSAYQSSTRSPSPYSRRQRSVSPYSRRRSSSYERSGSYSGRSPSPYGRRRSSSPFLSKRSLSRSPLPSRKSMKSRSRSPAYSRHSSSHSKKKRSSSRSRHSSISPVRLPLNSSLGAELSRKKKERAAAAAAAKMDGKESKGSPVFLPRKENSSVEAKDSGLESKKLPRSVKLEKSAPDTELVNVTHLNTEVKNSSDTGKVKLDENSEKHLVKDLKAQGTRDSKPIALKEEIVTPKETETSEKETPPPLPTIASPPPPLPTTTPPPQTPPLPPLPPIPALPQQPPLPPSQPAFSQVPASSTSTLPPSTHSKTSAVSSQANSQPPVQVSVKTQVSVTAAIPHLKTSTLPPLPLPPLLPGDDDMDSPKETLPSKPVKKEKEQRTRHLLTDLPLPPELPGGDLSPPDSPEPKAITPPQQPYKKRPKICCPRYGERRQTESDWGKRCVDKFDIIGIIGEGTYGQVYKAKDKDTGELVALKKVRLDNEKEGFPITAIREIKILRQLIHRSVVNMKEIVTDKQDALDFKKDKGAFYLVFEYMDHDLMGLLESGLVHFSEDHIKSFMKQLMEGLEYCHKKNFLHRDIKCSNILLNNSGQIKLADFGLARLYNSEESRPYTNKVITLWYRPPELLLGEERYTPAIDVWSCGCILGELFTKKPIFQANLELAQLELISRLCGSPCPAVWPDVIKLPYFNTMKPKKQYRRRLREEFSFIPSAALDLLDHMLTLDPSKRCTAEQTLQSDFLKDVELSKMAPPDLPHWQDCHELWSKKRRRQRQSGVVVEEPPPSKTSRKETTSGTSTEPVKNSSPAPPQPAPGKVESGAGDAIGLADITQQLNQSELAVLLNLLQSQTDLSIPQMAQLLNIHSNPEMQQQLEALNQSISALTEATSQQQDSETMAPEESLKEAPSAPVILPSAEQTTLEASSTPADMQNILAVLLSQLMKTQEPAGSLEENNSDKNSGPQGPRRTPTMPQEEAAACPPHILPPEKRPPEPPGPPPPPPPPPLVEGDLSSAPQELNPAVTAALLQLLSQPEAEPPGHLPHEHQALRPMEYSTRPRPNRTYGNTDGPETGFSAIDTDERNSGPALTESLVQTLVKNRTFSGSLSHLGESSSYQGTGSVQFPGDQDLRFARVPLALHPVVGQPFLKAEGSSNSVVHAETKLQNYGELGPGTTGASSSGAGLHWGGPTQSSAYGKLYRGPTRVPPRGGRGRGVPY
Chain of CDK12 (O75909 whole entry partner): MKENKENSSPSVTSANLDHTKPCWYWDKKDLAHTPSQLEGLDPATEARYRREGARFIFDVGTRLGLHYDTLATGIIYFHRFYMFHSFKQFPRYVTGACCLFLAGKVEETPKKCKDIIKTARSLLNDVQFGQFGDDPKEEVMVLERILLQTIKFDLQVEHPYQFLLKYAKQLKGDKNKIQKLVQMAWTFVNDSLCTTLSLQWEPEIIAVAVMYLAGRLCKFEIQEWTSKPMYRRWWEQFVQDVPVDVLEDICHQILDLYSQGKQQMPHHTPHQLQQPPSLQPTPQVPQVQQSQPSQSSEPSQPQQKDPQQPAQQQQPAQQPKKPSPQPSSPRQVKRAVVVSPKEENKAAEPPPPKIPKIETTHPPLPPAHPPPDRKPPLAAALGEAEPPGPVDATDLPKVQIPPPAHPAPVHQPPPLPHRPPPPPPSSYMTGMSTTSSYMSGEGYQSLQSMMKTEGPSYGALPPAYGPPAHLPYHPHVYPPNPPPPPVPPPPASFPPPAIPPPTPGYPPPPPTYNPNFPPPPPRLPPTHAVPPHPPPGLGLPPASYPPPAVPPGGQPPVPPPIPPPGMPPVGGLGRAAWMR
Chain of CDK13 (Q14004 whole entry, looked up): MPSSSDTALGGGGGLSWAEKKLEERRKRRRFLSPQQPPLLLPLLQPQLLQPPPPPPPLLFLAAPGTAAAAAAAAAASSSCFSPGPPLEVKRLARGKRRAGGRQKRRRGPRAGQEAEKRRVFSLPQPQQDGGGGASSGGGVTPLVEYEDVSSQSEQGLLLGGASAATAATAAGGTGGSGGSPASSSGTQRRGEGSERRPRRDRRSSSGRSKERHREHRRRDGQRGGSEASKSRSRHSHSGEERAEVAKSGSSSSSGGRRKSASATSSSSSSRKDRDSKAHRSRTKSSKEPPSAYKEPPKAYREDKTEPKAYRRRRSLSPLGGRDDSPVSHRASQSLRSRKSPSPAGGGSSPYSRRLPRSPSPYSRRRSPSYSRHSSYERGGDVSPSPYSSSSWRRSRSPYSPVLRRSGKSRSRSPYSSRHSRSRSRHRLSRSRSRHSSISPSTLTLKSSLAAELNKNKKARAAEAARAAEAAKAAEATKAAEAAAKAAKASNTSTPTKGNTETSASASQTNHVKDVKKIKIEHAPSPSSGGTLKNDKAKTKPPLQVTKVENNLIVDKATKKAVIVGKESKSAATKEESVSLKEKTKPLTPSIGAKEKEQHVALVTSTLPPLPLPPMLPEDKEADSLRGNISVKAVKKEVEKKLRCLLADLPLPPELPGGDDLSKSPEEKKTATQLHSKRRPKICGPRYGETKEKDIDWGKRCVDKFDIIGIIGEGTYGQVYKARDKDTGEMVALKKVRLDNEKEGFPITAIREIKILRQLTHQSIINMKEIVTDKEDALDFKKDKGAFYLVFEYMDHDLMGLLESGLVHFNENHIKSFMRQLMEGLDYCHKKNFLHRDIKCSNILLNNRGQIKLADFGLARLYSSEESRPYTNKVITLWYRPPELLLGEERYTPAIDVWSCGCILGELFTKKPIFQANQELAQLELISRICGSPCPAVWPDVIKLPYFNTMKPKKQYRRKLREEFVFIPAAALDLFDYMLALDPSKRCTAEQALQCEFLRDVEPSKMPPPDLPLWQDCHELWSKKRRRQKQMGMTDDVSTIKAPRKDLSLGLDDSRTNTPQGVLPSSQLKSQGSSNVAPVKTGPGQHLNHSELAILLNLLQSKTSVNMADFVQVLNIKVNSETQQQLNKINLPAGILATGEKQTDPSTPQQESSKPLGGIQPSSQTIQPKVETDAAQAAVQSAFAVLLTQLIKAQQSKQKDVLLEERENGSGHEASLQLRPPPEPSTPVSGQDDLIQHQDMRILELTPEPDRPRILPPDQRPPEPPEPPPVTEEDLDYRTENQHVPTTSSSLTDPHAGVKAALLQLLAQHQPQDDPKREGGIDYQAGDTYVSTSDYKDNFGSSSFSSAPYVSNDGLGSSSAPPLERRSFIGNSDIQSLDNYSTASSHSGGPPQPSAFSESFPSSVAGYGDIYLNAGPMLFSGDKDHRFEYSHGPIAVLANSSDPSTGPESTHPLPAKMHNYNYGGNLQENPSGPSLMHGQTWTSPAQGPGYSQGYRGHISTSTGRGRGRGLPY
Chain of CDK13 (O75909 whole entry partner, looked up): as the sequence (O75909 whole entry partner) above
Chain of CDK9 (P50750 whole entry, looked up, species assumed): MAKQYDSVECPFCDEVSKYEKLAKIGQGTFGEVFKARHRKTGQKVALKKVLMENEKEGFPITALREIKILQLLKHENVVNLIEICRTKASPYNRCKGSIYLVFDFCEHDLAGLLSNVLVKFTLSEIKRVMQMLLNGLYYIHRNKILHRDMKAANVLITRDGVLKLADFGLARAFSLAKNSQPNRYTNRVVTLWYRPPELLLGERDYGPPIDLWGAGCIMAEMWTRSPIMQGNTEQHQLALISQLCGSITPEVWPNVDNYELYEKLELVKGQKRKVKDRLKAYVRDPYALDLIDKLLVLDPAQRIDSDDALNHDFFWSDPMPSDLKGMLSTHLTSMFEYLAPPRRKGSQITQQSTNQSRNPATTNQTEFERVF
Chain of CDK9 (O60563 whole entry partner, looked up, species assumed): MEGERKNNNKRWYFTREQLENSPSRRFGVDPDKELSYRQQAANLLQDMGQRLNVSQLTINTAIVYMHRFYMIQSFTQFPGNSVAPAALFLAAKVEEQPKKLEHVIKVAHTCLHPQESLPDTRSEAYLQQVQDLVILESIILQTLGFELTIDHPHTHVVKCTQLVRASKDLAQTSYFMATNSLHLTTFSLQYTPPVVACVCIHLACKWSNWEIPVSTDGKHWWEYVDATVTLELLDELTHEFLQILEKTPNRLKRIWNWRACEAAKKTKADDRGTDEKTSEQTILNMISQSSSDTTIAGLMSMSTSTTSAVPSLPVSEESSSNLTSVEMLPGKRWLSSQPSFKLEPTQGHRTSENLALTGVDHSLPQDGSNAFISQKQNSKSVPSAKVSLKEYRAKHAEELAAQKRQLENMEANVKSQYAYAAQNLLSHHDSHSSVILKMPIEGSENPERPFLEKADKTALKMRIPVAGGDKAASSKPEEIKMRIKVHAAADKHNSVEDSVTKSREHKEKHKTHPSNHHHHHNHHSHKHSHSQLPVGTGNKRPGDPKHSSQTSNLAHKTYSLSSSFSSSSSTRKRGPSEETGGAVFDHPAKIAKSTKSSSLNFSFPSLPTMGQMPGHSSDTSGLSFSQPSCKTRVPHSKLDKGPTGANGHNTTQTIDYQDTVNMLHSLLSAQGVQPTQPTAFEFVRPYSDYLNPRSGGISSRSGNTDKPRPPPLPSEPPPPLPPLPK

SMILES: C=CC(=O)Nc1cccc(N(C(=O)NCc2ccccc2)[C@H]2CC[C@H](Nc3ccc(C#N)cn3)CC2)c1 [YJZ4156, N-(3-(3-benzyl-1-((1r,4r)-4-((5-cyanopyridin-2-yl)amino)cyclohexyl)ureido)phenyl)acrylamide]
IC50 (CDK13; [1]): 0.05 to 0.5 µM
IC50 (VCaP cell; Homo sapiens): 0.05 to 0.5 µM
IC50 (CDK12; [2]): > 0.5 µM

SMILES: C=CC(=O)Nc1cc(N(C(=O)NCc2ccccc2)[C@H]2CC[C@H](Nc3ccc(C#N)cn3)CC2)ccc1N1CCN(C(C)=O)CC1 [YJZ5111, N-(2-(4-acetylpiperazin-1-yl)-5-(3-benzyl-1-((1r,4r)-4-((5-cyanopyridin-2-yl)amino)cyclohexyl)ureido)phenyl)acrylamide]
IC50 (CDK13; [1]): 0.015 to 0.05 µM
IC50 (VCaP cell; Homo sapiens): 0.015 to 0.05 µM
IC50 (CDK12; [2]): 0.015 to 0.05 µM

SMILES: C=CC(=O)Nc1cc(N(C(=O)NCc2ccccc2)[C@H]2CC[C@H](Nc3ccc(C#N)cn3)CC2)ccc1N1CCC(N(C)C)CC1 [YJZ5118, N-(5-(3-benzyl-1-((1r,4r)-4-((5-cyanopyridin-2-yl)amino)cyclohexyl)ureido)-2-(4-(dimethylamino)piperidin-1-yl)phenyl)acrylamide]
IC50 (CDK13): 0.015 to 0.05 µM
inhibitory activities on CDK12/13 kinase (CDK13) (CDK13; in words): strong
IC50 (VCaP cell; Homo sapiens): < 0.015 µM
IC50 (CDK9; 0.3 nM enzyme, 60 min pre-incubation, ULight-4E-BP1 150 nM): > 0.5 µM
selectivity for CDK9 kinase (CDK9; CDK12/13 versus CDK9, in words): good selectivity
IC50 (CDK12): 0.015 to 0.05 µM
inhibitory activities on CDK12/13 kinase (CDK12) (CDK12; in words): strong

SMILES: C=CC(=O)Nc1cc(N(C(=O)NCc2ccccc2)[C@H]2CC[C@H](Nc3ccc(C#N)cn3)CC2)ccc1N1CCN(C2COC2)CC1 [YJZ6028, N-(5-(3-benzyl-1-((1r,4r)-4-((5-cyanopyridin-2-yl)amino)cyclohexyl)ureido)-2-(4-(oxetan-3-yl)piperazin-1-yl)phenyl)acrylamide]
IC50 (CDK13; [1]): 0.05 to 0.5 µM
IC50 (VCaP cell; Homo sapiens): 0.015 to 0.05 µM
IC50 (CDK12; [2]): 0.05 to 0.5 µM

SMILES: C=CC(=O)Nc1cc(N(C(=O)NCc2ccccc2)[C@H]2CC[C@H](Nc3ccc(C#N)cn3)CC2)ccc1N1C[C@H]2C[C@@H]1CN2C [YJZ6096, N-(5-(3-benzyl-1-((1r,4R)-4-((5-cyanopyridin-2-yl)amino)cyclohexyl)ureido)-2-((1R,4R)-5-methyl-2,5-diazabicyclo[2.2.1]heptan-2-yl)phenyl)acrylamide]
IC50 (CDK13; [1]): 0.015 to 0.05 µM
IC50 (VCaP cell; Homo sapiens): 0.05 to 0.5 µM
IC50 (CDK12; [2]): 0.015 to 0.05 µM

SMILES: C=CC(=O)Nc1cc(N(C(=O)NCc2ccccc2)[C@H]2CC[C@H](Nc3ccc(C#N)cn3)CC2)cc(F)c1N1CCN(C)[C@@H](C)C1 [YJZ8070]
IC50 (CDK13; [1]): 0.015 to 0.05 µM
IC50 (VCaP cell): < 0.015 µM
IC50 (CDK12; [2]): 0.05 to 0.5 µM

SMILES: C=CC(=O)Nc1cc(N(C(=O)C(=O)NCc2ccc(F)c(F)c2)[C@H]2CC[C@H](Nc3ccc(C#N)cn3)CC2)ccc1N1CCN(C)[C@@H](C)C1 [YJZ8101, N1-(3-acrylamido-4-((S)-3,4-dimethylpiperazin-1-yl)phenyl)-N1-((1r,4S)-4-((5-cyanopyridin-2-yl)amino)cyclohexyl)-N2-(3,4-difluorobenzyl)oxalamide]
IC50 (VCaP cell; Homo sapiens): < 0.015 µM

SMILES: C=CC(=O)Nc1cc(N(C(=O)C(=O)NCc2cc(F)cc(F)c2)[C@H]2CC[C@H](Nc3ccc(C#N)cn3)CC2)ccc1N1CCN(C)[C@@H](C)C1 [YJZ8102, N1-(3-acrylamido-4-((S)-3,4-dimethylpiperazin-1-yl)phenyl)-N1-((1r,4S)-4-((5-cyanopyridin-2-yl)amino)cyclohexyl)-N2-(3,5-difluorobenzyl)oxalamide]
IC50 (VCaP cell; Homo sapiens): 0.015 to 0.05 µM

SMILES: C=CC(=O)Nc1cc(N(C(=O)C(=O)NCC2CC2)[C@H]2CC[C@H](Nc3ccc(C#N)cn3)CC2)ccc1N1CCN(C)[C@@H](C)C1 [YJZ8103, N1-(3-acrylamido-4-((S)-3,4-dimethylpiperazin-1-yl)phenyl)-N1-((1r,4S)-4-((5-cyanopyridin-2-yl)amino)cyclohexyl)-N2-(cyclopropylmethyl)oxalamide]
IC50 (VCaP cell; Homo sapiens): 0.015 to 0.05 µM

SMILES: C=CC(=O)Nc1cc(N(C(=O)C(=O)N[C@H](C)c2ccccc2)[C@H]2CC[C@H](Nc3ccc(C#N)cn3)CC2)ccc1N1CCN(C)[C@@H](C)C1 [YJZ8105, N1-(3-acrylamido-4-((S)-3,4-dimethylpiperazin-1-yl)phenyl)-N1-((1r,4R)-4-((5-cyanopyridin-2-yl)amino)cyclohexyl)-N2-((R)-1-phenylethyl)oxalamide]
IC50 (VCaP cell; Homo sapiens): 0.015 to 0.05 µM

SMILES: C=CC(=O)Nc1cc(N(C(=O)C(=O)NCc2cccc(F)c2F)[C@H]2CC[C@H](Nc3ccc(C#N)cn3)CC2)ccc1N1CCN(C)[C@@H](C)C1 [YJZ8107, N1-(3-acrylamido-4-((S)-3,4-dimethylpiperazin-1-yl)phenyl)-N1-((1r,4S)-4-((5-cyanopyridin-2-yl)amino)cyclohexyl)-N2-(2,3-difluorobenzyl)oxalamide]
IC50 (VCaP cell; Homo sapiens): 0.015 to 0.05 µM

Now from value to compound:

IC50 (CDK13; [1]): < 0.015 µM
IC50 (VCaP cell; Homo sapiens): 0.05 to 0.5 µM
IC50 (CDK12; [2]): 0.015 to 0.05 µM
SMILES: C=CC(=O)Nc1cc(N(C(=O)NCc2ccccc2)[C@H]2CC[C@H](Nc3ccc(C#N)cn3)CC2)ccc1-c1ccc(=O)n(C)c1 [YJZ5028]

IC50 (CDK13; [1]): 0.05 to 0.5 µM
IC50 (VCaP cell; Homo sapiens): < 0.015 µM
IC50 (CDK12; [2]): 0.05 to 0.5 µM
SMILES: C=CC(=O)Nc1cc(N(C(=O)NCc2ccccc2)[C@H]2CC[C@H](Nc3ccc(C#N)cn3)CC2)ccc1N(C)CCN(C)C [YJZ5125, N-(5-(3-benzyl-1-((1r,4r)-4-((5-cyanopyridin-2-yl)amino)cyclohexyl)ureido)-2-((2-(dimethylamino)ethyl)(methyl)amino)phenyl)acrylamide]

IC50 (CDK13; [1]): < 0.015 µM
IC50 (VCaP cell; Homo sapiens): 0.015 to 0.05 µM
IC50 (CDK12; [2]): 0.05 to 0.5 µM
SMILES: C=CC(=O)Nc1cc(N(C(=O)NCc2ccccc2)[C@H]2CC[C@H](Nc3ccc(C#N)cn3)CC2)ccc1N1CCOCC1 [YJZ5127, N-(5-(3-benzyl-1-((1r,4r)-4-((5-cyanopyridin-2-yl)amino)cyclohexyl)ureido)-2-morpholinophenyl)acrylamide]

IC50 (CDK13; [1]): 0.05 to 0.5 µM
IC50 (VCaP cell; Homo sapiens): 0.05 to 0.5 µM
IC50 (CDK12; [2]): 0.05 to 0.5 µM
SMILES: C=CC(=O)Nc1cc(N(C(=O)NCc2ccccc2)[C@H]2CC[C@H](Nc3ccc(C#N)cn3)CC2)ccc1N1CC(N(C)C)C1 [YJZ6077, N-(5-(3-benzyl-1-((1r,4r)-4-((5-cyanopyridin-2-yl)amino)cyclohexyl)ureido)-2-(3-(dimethylamino)azetidin-1-yl)phenyl)acrylamide]

IC50 (CDK13; [1]): 0.05 to 0.5 µM
IC50 (VCaP cell; Homo sapiens): 0.05 to 0.5 µM
IC50 (CDK12; [2]): > 0.5 µM
SMILES: C=CC(=O)Nc1cc(N(C(=O)NCc2ccccc2)[C@H]2CC[C@H](Nc3ccc(C#N)cn3)CC2)ccc1N1CCC(N(C)C)C1 (stereo partly shown) [YJZ6082]

IC50 (CDK13; [1]): 0.015 to 0.05 µM
IC50 (VCaP cell; Homo sapiens): < 0.015 µM
IC50 (CDK12; [2]): 0.015 to 0.05 µM
SMILES: C=CC(=O)Nc1cc(N(C(=O)NCc2ccccc2)[C@H]2CC[C@H](Nc3ccc(C#N)cn3)CC2)ccc1N1CCN(C)[C@@H](C)C1 [YJZ6093]

IC50 (CDK13; [1]): < 0.015 µM
IC50 (VCaP cell; Homo sapiens): 0.015 to 0.05 µM
IC50 (CDK12; [2]): 0.015 to 0.05 µM
SMILES: C=CC(=O)Nc1cc(N(C(=O)NCc2ccccc2)[C@H]2CC[C@H](Nc3ccc(C#N)cn3)CC2)ccc1N1CCN[C@@H](C)C1 [YJZ8027]

IC50 (VCaP cell; Homo sapiens): 0.015 to 0.05 µM
SMILES: C=CC(=O)Nc1cc(N(C(=O)C(=O)NCC(F)(F)F)[C@H]2CC[C@H](Nc3ccc(C#N)cn3)CC2)ccc1N1CCN(C)[C@@H](C)C1 [YJZ8104, N1-(3-acrylamido-4-((S)-3,4-dimethylpiperazin-1-yl)phenyl)-N1-((1r,4S)-4-((5-cyanopyridin-2-yl)amino)cyclohexyl)-N2-(2,2,2-trifluoroethyl)oxalamide]
